Measured values reported in patent publication US9532994B2, “Agents and methods for enhancing bone formation by oxysterols in combination with bone morphogenic proteins” (THE REGENTS OF THE UNIVERSITY OF CALIFORNIA, priority 2003, dated 2017).

What was measured:
[1] = test system: osteocalcin mRNA in M2 cells; assay: Northern blotting for osteocalcin mRNA in M2 cells; format: cell-based, mouse; conditions: 0.5-10 μM, as many as 14 days, data not shown
Experimental: The extent of gene induction was determined by densitometry.
After 4 and 8 days, total RNA from duplicate samples was isolated and analyzed for osteocalcin (Osc) and 28S rRNA expression by Northern blotting as described. FIG. 3E is a radiogram of Northern blotting for osteocalcin mRNA in M2 cells exposed to a control or combination of oxysterols for 4 or 8 days. FIG. 3F is a bar graph depicting the relative demsometric units of osteocalcin mRNA in M2 cells exposed to a control or combination of oxysterols for 4 or 8 days. Data from densitometric analysis of the Northern blot is shown in (F) as the average of duplicate samples, normalized to 28S rRNA.
Next, a combination of 22R and 20S oxysterols (RS, 2.5 μM each) were added in the presence or absence of SC as indicated. After 3 days, ALP activity was measured as described earlier. […] (B) M2 cells were treated as described in (A) and after 10 days matrix mineralization in cultures was quantified by a ^45Ca incorporation assay as described earlier. Results from a representative of three experiments are shown, reported as the mean±SD of quadruplicate determinations, normalized to protein concentration. (C) M2 cells were pretreated with 20 μM SC for 4 hours, followed by the addition of RS in the presence or absence of SC as described above. After 8 days, total RNA was isolated and analyzed for osteocalcin (Osc) and 18S rRNA expression by Northern blotting as previously described. Data from densitometric analysis of the Northern blot is shown in (D) as the average of duplicate samples, normalized to 18S rRNA. (E) M2 cells at confluence were pretreated for 2 hours with control vehicle (C), or PLA2 inhibitors ACA (25 μM) and MCOCF3 (MC, 20 μM), in osteogenic medium. Next, a combination of 22R and 20S oxysterols (RS, 2.5 μM) was added in the presence or absence of the inhibitors as indicated. After 3 days, ALP activity was measured as previously described. Data from a representative of three experiments are shown, reported as the mean±SD of quadruplicate determinations, normalized to protein concentration (p<0.01 for RS vs. RS+ACA and RS+MC). (F) M2 cells were treated as described in (E).

M2 cells = assay: Adipogenesis of M2 cells, oil Red O staining and adipocyte count; format: cell-based, mouse; conditions: 10 μM Tro, 10 μM oxysterols, alone or in combination, 10 days (FIG. 7)
Experimental: Von Kossa and oil red O staining—Matrix mineralization in cell monolayers was detected by silver nitrate staining as previously described. Oil red O staining for detection of adipocytes was performed as previously described.
Test 1: M2 cells at 90% confluence were treated with vehicle (C), PPAR-γ activator, troglitazone 10 uM (Tro), alone or in combination with 10 μM oxysterols 20S-, 22R-, or 25S-hydroxycholesterol. After 8 days, adipocytes were identified by oil Red O staining and quantified by counting under a phase contrast microscope. FIG. 6A is a bar graph depicting the effect of oxysterols on reducing adipogenesis of MSC.
Test 2: (A) M2 cells at confluence were treated in RPMI containing 10% FBS with control vehicle or 10 μM troglitazone (Tro) in the absence or presence of 10 μM 20S or 22S oxysterols. After 10 days, adipocytes were visualized by oil Red O staining and quantified by light microscopy, shown in (B). Data from a representative of four experiments are shown, reported as the mean SD of quadruplicate determinations (p<0.001 for Tro vs. Tro+20S and Tro+22S). (C) M2 cells were treated at confluence with 10 μM Tro, alone or in combination with 10 μM 20S oxysterol. After 10 days, total RNA was isolated and analyzed for lipoprotein lipase (LPL), adipocyte P2 gene (aP2) or 18S rRNA expression by Northern blotting as described (Ref). Data from densitometric analysis of the Northern blot is shown in (D) as the average of duplicate samples, normalized to 18S rRNA.

[2] = test system: M2-10B4 mouse marrow stromal cell line; assay: Alkaline phosphatase (ALP) activity assay in M2 cells; format: cell-based; conditions: for induction of alkaline phosphatase activity: 10 μM oxysterols, osteogenic medium, 3 days (FIG. 3A); for dose- and time-dependence of induction of alkaline phosphatase activity: concentrations between 0.5-10 μM; for alkaline phosphatase activity: ligands used at 10 μM, ±SD, control vehicle C: 18±2, p<0.01 for C vs. all ligands
Experimental: Cells: M2-10B4 mouse marrow stromal cell line obtained from American Type Culture Collection (ATCC, Rockville, Md., U.S.A.) was derived from bone marrow stromal cells of a (C57BL/6J×C3H/HeJ) F1 mouse, and support human and murine myelopoiesis in long-term cultures (as per ATCC) and have the ability to differentiate into osteoblastic and adipocytic cells. Unless specified, these cells were cultured in RPMI 1640 containing 10% heat-inactivated FBS, and supplemented with 1 mM sodium pyruvate, 100 U/ml penicillin, and 100 […] (all from Irvine Scientific).
Alkaline phosphatase activity assay: Colorimetric alkaline phosphatase (ALP) activity assay on whole cell extracts was performed as previously described. […]
Test 2: M2 cells were grown in RPMI medium containing 10% fetal bovine serum (FBS). At confluence, the cells were treated in RPMI containing 5% FBS plus ascorbate at 50 μg/ml and β-glycerophosphate at 3 mM to induce osteoblastic differentiation. Adipogenic differentiation was induced by treating the cells in growth medium plus 10 ˜M troglitazone. A vehicle (C) or oxysterol treatment was applied to cells in a variety of doses (in μM): 20S-Hydroxycholesterol, 25-Hydroxycholesterol, 22R-Hydroxycholesterol; 22S-Hydroxycholesterol; 7-ketocholesterol. Cells were always treated at 90% confluence. After 4 days, alkaline phosphatase activity was determined in whole cell lysates and normalized to protein. Alternatively, MSC cultures were prepared and treated with oxysterols as described above. Cells were treated at 90% confluence with the combination of 22R-Hydroxycholesterol and 20S-Hydroxycholesterol, each at 5 μM, for 4 to 96 hours. The oxysterols where removed and fresh media without oxysterols was added for a total duration of 96 hours. Alkaline phosphatase activity was measured in whole cell extracts and normalized to protein.
M2 cells were treated at 90% confluence with vehicle (C), or oxysterols 20S-Hydroxycholesterol or 22S-Hydroxycholesterol at (0.5 μM) or (1 μM), in the absence or presence of cytochrome P450 inhibitor (SKF525A 10 μM (+)). MSC cultures were also treated at 90% confluence with vehicle (C), or 20S-Hydroxycholesterol (2 μM), in the absence or presence of cytochrome P450 […] (Benzylimidazole 50 μM) or SKF525A (10 μM). After 4 days, alkaline phosphatase activity was measured in whole cell extracts and normalized to protein. […]

SMILES	induction of osteocalcin gene expression, individual oxysterols [1]	adipogenesis induced by troglitazone (M2 cells)	induction of alkaline phosphatase activity [2]	dose- and time-dependence of induction of alkaline phosphatase activity [2]	alkaline phosphatase activity [2] [activity units/mg protein]
CC(C)CCC[C@](C)(O)[C@H]1CC[C@H]2[C@@H]3CC=C4C[C@@H](O)CC[C@]4(C)[C@H]3CC[C@@]21C [20S, 20(S)-hydroxycholesterol]	unable to induce	inhibited adipogenesis	induced	dose- and time-dependent	140±12
CC(C)CC[C@@H](O)[C@@H](C)[C@H]1CC[C@H]2[C@@H]3CC=C4C[C@@H](O)CC[C@]4(C)[C@H]3CC[C@]12C [22R, 22(R)-hydroxycholesterol]	unable to induce	inhibited adipogenesis	induced	dose- and time-dependent	45±5
CC(C)CC[C@H](O)[C@@H](C)[C@H]1CC[C@H]2[C@@H]3CC=C4C[C@@H](O)CC[C@]4(C)[C@H]3CC[C@]12C [22S, 22(S)-hydroxycholesterol]	unable to induce	inhibited adipogenesis	induced	dose- and time-dependent	
